Measured values as given in US20050043315A1, “Aminopyrimidine compounds, processes for their preparation and pharmaceutical compositions containing them” (priority 2002, published 2005).

Compound `CC(C)n1nc(-c2cnc(N(C(=O)c3ccccc3)C(=O)c3ccccc3)nc2-c2ccccc2)ccc1=O` [Example 178, N-benzoyl-N-[5-(1-isopropyl-6-oxo-1,6-dihydro-3-pyridazinyl)-4-phenyl-2-pyrimidinyl]benzamide] has a melting point of 121 to 125 °C.
For `CC(C)n1nc(-c2cnc(N(C(=O)c3ccc(F)cc3)C(=O)c3ccc(F)cc3)nc2-c2ccccc2)ccc1=O` [Example 179, 4-Fluoro-N-(4-fluorobenzoyl)-N-[5-(1-isopropyl-6-oxo-1,6-dihydro-3-pyridazinyl)-4-phenyl-2-pyrimidinyl]benzamide], the melting point was 148 to 151 °C.
`CC(C)n1nc(-c2cnc(N(C(=O)c3ccc(Cl)cc3)C(=O)c3ccc(Cl)cc3)nc2-c2ccccc2)ccc1=O` [Example 180, 4-Chloro-N-(4-chlorobenzoyl)-N-[5-(1-isopropyl-6-oxo-1,6-dihydro-3-pyridazinyl)-4-phenyl-2-pyrimidinyl]benzamide] showed a melting point of 110 °C.
`CC(C)n1nc(-c2cnc(N(C(=O)c3ccc(C(F)(F)F)cc3)C(=O)c3ccc(C(F)(F)F)cc3)nc2-c2ccccc2)ccc1=O` [Example 183, N-[5-(1-isopropyl-6-oxo-1,6-dihydro-3-pyridazinyl)-4-phenyl-2-pyrimidinyl]-4-(trifluoromethyl)-N-[4-(trifluoromethyl)benzoyl]benzamide] gave a melting point of 159 °C.
In the case of `CCOc1ccc(-c2nc(N)ncc2-c2ccc(=O)n(C(C)C)n2)cc1` [Example 188, 6-[2-amino-4-(4-ethoxyphenyl)-5-pyrimidinyl]-2-isopropyl-3(2H)-pyridazinone], the melting point is reported as 204 °C.
`CCOc1ccccc1-c1nc(N)ncc1-c1ccc(=O)n(C(C)C)n1` [Example 189, 6-[2-Amino-4-(2-ethoxyphenyl)-5-pyrimidinyl]-2-isopropyl-3(2H)-pyridazinone] showed a melting point of 185 °C.
`CCOc1cccc(-c2nc(N)ncc2-c2ccc(=O)n(C(C)C)n2)c1` [Example 190, 6-[2-Amino-4-(3-ethoxyphenyl)-5-pyrimidinyl]-2-isopropyl-3(2H)-pyridazinone] showed a melting point of 142 °C.
For `CCCOc1ccc(-c2nc(N)ncc2-c2ccc(=O)n(C(C)C)n2)cc1` [Example 191, 6-[2-Amino-4-(4-propoxyphenyl)-5-pyrimidinyl]-2-isopropyl-3(2H)-pyridazinone], the melting point was 175 °C.
Work on `CCCOc1ccccc1-c1nc(N)ncc1-c1ccc(=O)n(C(C)C)n1` [Example 192, 6-[2-Amino-4-(2-propoxyphenyl)-5-pyrimidinyl]-2-isopropyl-3(2H)-pyridazinone] yielded a melting point of 145 °C.
In the case of `CCCOc1cccc(-c2nc(N)ncc2-c2ccc(=O)n(C(C)C)n2)c1` [Example 193, 6-[2-Amino-4-(3-propoxyphenyl)-5-pyrimidinyl]-2-isopropyl-3(2H)-pyridazinone], the melting point is reported as 122 °C.
In the case of `CC(C)Oc1ccc(-c2nc(N)ncc2-c2ccc(=O)n(C(C)C)n2)cc1` [Example 194, 6-[2-Amino-4-(4-isopropoxyphenyl)-5-pyrimidinyl]-2-isopropyl-3(2H)-pyridazinone], the melting point is reported as 164 °C.
Compound `CC(C)Oc1cccc(-c2nc(N)ncc2-c2ccc(=O)n(C(C)C)n2)c1` [Example 196, 6-[2-Amino-4-(3-isopropoxyphenyl)-5-pyrimidinyl]-2-isopropyl-3(2H)-pyridazinone] has a melting point of 143 °C.
With `CCCCOc1ccc(-c2nc(N)ncc2-c2ccc(=O)n(C(C)C)n2)cc1` [Example 197, 6-[2-Amino-4-(4-butoxyphenyl)-5-pyrimidinyl]-2-isopropyl-3(2H)-pyridazinone] the melting point was 143 °C.
In the case of `CCCCOc1ccccc1-c1nc(N)ncc1-c1ccc(=O)n(C(C)C)n1` [Example 198, 6-[2-Amino-4-(2-butoxyphenyl)-5-pyrimidinyl]-2-isopropyl-3(2H)-pyridazinone], the melting point is reported as 149 °C.
For `CCCCOc1cccc(-c2nc(N)ncc2-c2ccc(=O)n(C(C)C)n2)c1` [Example 199, 6-[2-Amino-4-(3-butoxyphenyl)-5-pyrimidinyl]-2-isopropyl-3(2H)-pyridazinone], the melting point was 130 °C.
Compound `CC(C)COc1ccc(-c2nc(N)ncc2-c2ccc(=O)n(C(C)C)n2)cc1` [Example 200, 6-[2-Amino-4-(4-isobutoxyphenyl)-5-pyrimidinyl]-2-isopropyl-3(2H)-pyridazinone] has a melting point of 166 °C.
Compound `CC(C)COc1ccccc1-c1nc(N)ncc1-c1ccc(=O)n(C(C)C)n1` [Example 201, 6-[2-Amino-4-(2-isobutoxyphenyl)-5-pyrimidinyl]-2-isopropyl-3(2H)-pyridazinone] has a melting point of 189 °C.
In the case of `CC(C)COc1cccc(-c2nc(N)ncc2-c2ccc(=O)n(C(C)C)n2)c1` [Example 202, 6-[2-Amino-4-(3-isobutoxyphenyl)-5-pyrimidinyl]-2-isopropyl-3(2H)-pyridazinone], the melting point is reported as 137 °C.
With `CC(C)CCOc1ccccc1-c1nc(N)ncc1-c1ccc(=O)n(C(C)C)n1` [Example 204, 6-{2-Amino-4-(2-(isopentyloxy)phenyl]-5-pyrimidinyl}-2-isopropyl-3(2H)-pyridazinone] the melting point was 155 °C.
Work on `CC(C)CCOc1cccc(-c2nc(N)ncc2-c2ccc(=O)n(C(C)C)n2)c1` [Example 205, 6-{2-Amino-4-[3-(isopentyloxy)phenyl]-5-pyrimidinyl}-2-isopropyl-3(2H)-pyridazinone] yielded a melting point of 97 °C.
For `CCCCCCOc1ccc(-c2nc(N)ncc2-c2ccc(=O)n(C(C)C)n2)cc1` [Example 206, 6-{2-Amino-4-[4-(hexyloxy)phenyl]-5-pyrimidinyl}-2-isopropyl-3(2H)-pyridazinone], the melting point was 184 °C.
In the case of `CCCCCCOc1ccccc1-c1nc(N)ncc1-c1ccc(=O)n(C(C)C)n1` [Example 207, 6-{2-Amino-4-[2-(hexyloxy)phenyl]-5-pyrimidinyl}-2-isopropyl-3(2H)-pyridazinone], the melting point is reported as 92 °C.
Compound `CCCCCCOc1cccc(-c2nc(N)ncc2-c2ccc(=O)n(C(C)C)n2)c1` [Example 208, 6-{2-Amino-4-[3-(hexyloxy)phenyl]-5-pyrimidinyl}-2-isopropyl-3(2H)-pyridazinone] has a melting point of 121 °C.
For `CC(C)n1nc(-c2cnc(N)nc2-c2ccc(OCCF)cc2)ccc1=O` [Example 209, 6-{2-Amino-4-[4-(2-fluoroethoxy)phenyl]-5-pyrimidinyl}-2-isopropyl-3(2H)-pyridazinone], the melting point was 200 °C.
Compound `CC(C)n1nc(-c2cnc(N)nc2-c2ccccc2OCCF)ccc1=O` [Example 210, 6-{2-Amino-4-[2-(2-fluoroethoxy)phenyl]-5-pyrimidinyl}-2-isopropyl-3(2H)-pyridazinone] has a melting point of 171 °C.
`CC(C)n1nc(-c2cnc(N)nc2-c2cccc(OCCF)c2)ccc1=O` [Example 211, 6-{2-Amino-4-[3-(2-fluoroethoxy)phenyl]-5-pyrimidinyl}-2-isopropyl-3(2H)-pyridazinone] gave a melting point of 123 °C.
`CC(C)n1nc(-c2cnc(N)nc2-c2ccccc2OCCCF)ccc1=O` [Example 215, 6-{2-Amino-4-[2-(3-fluoropropoxy)phenyl]-5-pyrimidinyl}-2-isopropyl-3(2H)-pyridazinone] showed a melting point of 200 °C.
For `CC(C)n1nc(-c2cnc(N)nc2-c2cccc(OCCCF)c2)ccc1=O` [Example 216, 6-{2-Amino-4-[3-(3-fluoropropoxy)phenyl]-5-pyrimidinyl}-2-isopropyl-3(2H)-pyridazinone], the melting point was 123 °C.
In the case of `CC(C)n1nc(-c2cnc(N)nc2-c2ccc(OCCN(C)C)cc2)ccc1=O` [Example 217, 6-(2-amino-4-{4-(2-(dimethylamino)ethoxy]phenyl}-5-pyrimidinyl)-2-isopropyl-3(2H)-pyridazinone], the melting point is reported as 162 °C.
`CC(C)n1nc(-c2cnc(N)nc2-c2ccccc2OCCN(C)C)ccc1=O` [Example 218, 6-(2-Amino-4-{2-[2-(dimethylamino)ethoxy]phenyl}-5-pyrimidinyl)-2-isopropyl-3(2H)-pyridazinone] gave a melting point of 198 °C.
For `CC(C)n1nc(-c2cnc(N)nc2-c2cccc(OCCN(C)C)c2)ccc1=O` [Example 219, 6-(2-Amino-4-{3-[2-(dimethylamino)ethoxy]phenyl}-5-pyrimidinyl)-2-isopropyl-3(2H)-pyridazinone], the melting point was 111 °C.
For `CC(C)n1nc(-c2cnc(N)nc2-c2ccc(OCCN3CCOCC3)cc2)ccc1=O` [Example 220, 6-(2-Amino-4-{4-[2-(4-morpholinyl)ethoxy]phenyl}-5-pyrimidinyl)-2-isopropyl-3(2H)-pyridazinone], the melting point was 161 °C.
`CC(C)n1nc(-c2cnc(N)nc2-c2ccccc2OCCN2CCOCC2)ccc1=O` [Example 221, 6-(2-Amino-4-{2-[2-(4-morpholinyl)ethoxy]phenyl}-5-pyrimidinyl)-2-isopropyl-3(2H)-pyridazinone] gave a melting point of 115 °C.
`CC(C)n1nc(-c2cnc(N)nc2-c2cccc(OCCN3CCOCC3)c2)ccc1=O` [Example 222, 6-(2-Amino-4-{3-[2-(4-morpholinyl)ethoxy]phenyl}-5-pyrimidinyl)-2-isopropyl-3(2H)-pyridazinone] showed a melting point of 68 °C.
Work on `CC(C)n1nc(-c2cnc(N)nc2-c2ccc(Br)cc2)ccc1=O` [Example 235, 6-[2-Amino-4-(4-bromophenyl)-5-pyrimidinyl]-2-isopropyl-3(2H)-pyridazinone] yielded a melting point of 204 °C.
Work on `CC(C)n1nc(-c2cnc(N)nc2-c2cccc(Br)c2)ccc1=O` [Example 236, 6-[2-Amino-4-(3-bromophenyl)-5-pyrimidinyl]-2-isopropyl-3(2H)-pyridazinone] yielded a melting point of 238 to 240 °C.
In the case of `CC(C)n1nc(-c2cnc(N)nc2-c2c(F)cccc2F)ccc1=O` [Example 237, 6-[2-Amino-4-(2,6-difluorophenyl)-5-pyrimidinyl]-2-isopropyl-3(2H)-pyridazinone], the melting point is reported as 244 °C.
Compound `CC(C)n1nc(-c2cnc(N)nc2-c2cc(F)cc(F)c2)ccc1=O` [Example 238, 6-[2-Amino-4-(3,5-difluorophenyl)-5-pyrimidinyl]-2-isopropyl-3(2H)-pyridazinone] has a melting point of 234 °C.
With `CC(C)n1nc(-c2cnc(N)nc2-c2c(Cl)cccc2Cl)ccc1=O` [Example 239, 6-[2-Amino-4-(2,6-dichlorophenyl)-5-pyrimidinyl]-2-isopropyl-3(2H)-pyridazinone] the melting point was 208 °C.
`Cc1cccc(C)c1-c1nc(N)ncc1-c1ccc(=O)n(C(C)C)n1` [Example 240, 6-[2-Amino-4-(2,6-dimethylphenyl)-5-pyrimidinyl]-2-isopropyl-3(2H)-pyridazinone] gave a melting point of 212 °C.
